Laboratory results published in patent US20250059198A1, “BRM DEGRADING COMPOUNDS AND ASSOCIATED METHODS OF USE” (Arvinas Operations, Inc., priority 2021, published 2025).

Molecular target: T1, BRM (Homo sapiens, UniProt P51531)
T1 construct: Western Blot Screen of BRM Degradation in SW1573 Cells; endogenous in cells; host or cells: SW1573 cells
Experiment: BRM degradation (Dmax and DC50) in SW1573 cells, Western blot screen / In-Cell Western screen
Format: cell-based
Conditions: overnight (18-20 hours) treatment; for Dmax: read-out: Dmax (%)** (% degraded)
In short: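 Dmax and DC50 were derived from BRM levels normalised to an alpha-tubulin control, measured by chemiluminescent Western blotting of lysates or by PFA-fixed In-Cell Western on LI-COR Odyssey. SW1573 cells received compound overnight (18–20 h, 0.1% DMSO final).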

T1 sequence (P51531 whole entry): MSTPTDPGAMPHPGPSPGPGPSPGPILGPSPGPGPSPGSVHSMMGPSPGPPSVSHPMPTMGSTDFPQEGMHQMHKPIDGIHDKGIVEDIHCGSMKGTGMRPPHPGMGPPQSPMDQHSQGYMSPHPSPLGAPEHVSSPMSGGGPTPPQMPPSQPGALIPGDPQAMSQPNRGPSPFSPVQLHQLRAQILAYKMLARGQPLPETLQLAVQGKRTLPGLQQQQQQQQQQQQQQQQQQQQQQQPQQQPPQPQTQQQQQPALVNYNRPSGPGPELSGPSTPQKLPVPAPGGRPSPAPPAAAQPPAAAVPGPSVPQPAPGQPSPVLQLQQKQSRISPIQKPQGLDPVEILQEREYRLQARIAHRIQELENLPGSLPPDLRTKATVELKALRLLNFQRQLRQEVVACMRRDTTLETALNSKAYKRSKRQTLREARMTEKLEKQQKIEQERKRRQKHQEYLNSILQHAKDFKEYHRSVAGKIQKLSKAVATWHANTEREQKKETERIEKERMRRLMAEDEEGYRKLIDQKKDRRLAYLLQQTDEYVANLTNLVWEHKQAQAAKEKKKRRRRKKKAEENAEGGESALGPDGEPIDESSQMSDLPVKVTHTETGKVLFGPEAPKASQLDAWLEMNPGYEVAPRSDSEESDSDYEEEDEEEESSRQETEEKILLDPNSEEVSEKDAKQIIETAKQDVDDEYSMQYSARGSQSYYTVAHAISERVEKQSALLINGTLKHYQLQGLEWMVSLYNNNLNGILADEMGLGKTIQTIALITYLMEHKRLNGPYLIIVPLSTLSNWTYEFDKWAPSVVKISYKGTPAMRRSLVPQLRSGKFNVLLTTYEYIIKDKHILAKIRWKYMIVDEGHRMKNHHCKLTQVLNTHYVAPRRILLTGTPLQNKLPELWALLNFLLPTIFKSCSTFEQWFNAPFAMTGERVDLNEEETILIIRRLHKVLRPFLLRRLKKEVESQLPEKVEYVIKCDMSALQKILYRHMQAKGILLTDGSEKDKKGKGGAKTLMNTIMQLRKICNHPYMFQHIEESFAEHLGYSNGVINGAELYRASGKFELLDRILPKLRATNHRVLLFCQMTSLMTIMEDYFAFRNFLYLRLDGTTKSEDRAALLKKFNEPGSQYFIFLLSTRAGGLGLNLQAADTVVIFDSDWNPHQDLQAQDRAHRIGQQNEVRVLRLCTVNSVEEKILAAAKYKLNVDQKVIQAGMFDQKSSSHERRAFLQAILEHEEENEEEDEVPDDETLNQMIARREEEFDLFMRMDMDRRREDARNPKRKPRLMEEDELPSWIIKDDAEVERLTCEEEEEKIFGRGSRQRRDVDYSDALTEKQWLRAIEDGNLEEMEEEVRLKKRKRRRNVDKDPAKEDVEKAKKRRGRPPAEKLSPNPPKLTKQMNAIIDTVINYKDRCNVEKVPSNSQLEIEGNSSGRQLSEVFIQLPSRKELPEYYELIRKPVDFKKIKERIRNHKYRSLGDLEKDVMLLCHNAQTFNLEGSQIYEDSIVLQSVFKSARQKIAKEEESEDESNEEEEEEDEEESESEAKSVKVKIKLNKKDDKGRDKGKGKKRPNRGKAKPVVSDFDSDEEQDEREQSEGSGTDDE

SMILES	DC50	Dmax
Cc1ncsc1-c1ccc([C@H](C)NC(=O)[C@@H]2C[C@@H](O)CN2C(=O)[C@H](c2cc(O[C@H]3C[C@H](CN4CCC(O[C@H]5C[C@H](N6CCOC7(CCN(c8cc(-c9ccccc9O)nnc8N)CC7)C6)C5)CC4)C3)no2)C(C)C)cc1 [Compound 67, (2S,4R)-4-hydroxy-N-[(1S)-1-[4-(4-methyl-1,3-thiazol-5-yl)phenyl]ethyl]-1-[(2S)-3-methyl-2-{3-[(1r,3r)-3-({4-[(1r,3r)-3-{9-[3-amino-6-(2-hydroxyphenyl)pyridazin-4-yl]-1-oxa-4,9-diazaspiro[5.5]undecan-4-yl}cyclobutoxy]piperidin-1-yl}methyl)cyclobutoxy]-1,2-oxazol-5-yl}butanoyl]pyrrolidine-2-carboxamide]	10 to 30 nM	> 75%
Cc1ncsc1-c1ccc([C@H](C)NC(=O)[C@@H]2C[C@@H](O)CN2C(=O)[C@@H](c2cc(N3CCC(CN4CCC(N5CCC6(CC5)CC(Oc5cc(N7C8CCC7CN(c7cc(-c9ccccc9O)nnc7N)C8)ccn5)C6)CC4)CC3)no2)C(C)C)cc1 [Compound 43, (2S,4R)-1-[(2R)-2-(3-{4-[(4-{2-[(4-{3-[3-amino-6-(2-hydroxyphenyl)pyridazin-4-yl]-3,8-diazabicyclo[3.2.1]octan-8-yl}pyridin-2-yl)oxy]-7-azaspiro[3.5]nonan-7-yl}piperidin-1-yl)methyl]piperidin-1-yl}-1,2-oxazol-5-yl)-3-methylbutanoyl]-4-hydroxy-N-[(1S)-1-[4-(4-methyl-1,3-thiazol-5-yl)phenyl]ethyl]pyrrolidine-2-carboxamide]	< 2.5 nM	> 75%
Cc1ncsc1-c1ccc([C@H](C)NC(=O)[C@@H]2C[C@@H](O)CN2C(=O)[C@@H](c2cc(N3CCC(CN4CCC5(CC4)CC(N4CCO[C@@H](C(C)n6cc(-c7cc(-c8ccccc8O)nnc7N)cn6)C4)C5)CC3)no2)C(C)C)cc1 (stereo partly drawn) [Compound 89, (2S,4R)-1-[(2R)-2-{3-[4-({2-[(2R)-2-(1-{4-[3-amino-6-(2-hydroxyphenyl)pyridazin-4-yl]-1H-pyrazol-1-yl}ethyl)morpholin-4-yl]-7-azaspiro[3.5]nonan-7-yl}methyl)piperidin-1-yl]-1,2-oxazol-5-yl}-3-methylbutanoyl]-4-hydroxy-N-[(1S)-1-[4-(4-methyl-1,3-thiazol-5-yl)phenyl]ethyl]pyrrolidine-2-carboxamide]	< 2.5 nM	> 75%
CC(C)[C@@H](C(=O)N1C[C@H](O)C[C@H]1C(=O)N[C@@H](C)c1ccc(C#N)cc1)c1cc(N2CCC(CN3CCC(O[C@H]4C[C@H](Oc5cc(N6C7CCCC6CN(c6cc(-c8ccccc8O)nnc6N)C7)ccn5)C4)CC3)CC2)no1 [Compound 16, (2S,4R)-N-[(1S)-1-(4-cyanophenyl)ethyl]-4-hydroxy-1-[(2R)-3-methyl-2-{3-[4-({4-[(1r,3r)-3-[(4-{3-[3-amino-6-(2-hydroxyphenyl)pyridazin-4-yl]-3,9-diazabicyclo[3.3.1]nonan-9-yl}pyridin-2-yl)oxy]cyclobutoxy]piperidin-1-yl}methyl)piperidin-1-yl]-1,2-oxazol-5-yl}butanoyl]pyrrolidine-2-carboxamide]	< 2.5 nM	> 75%
Cc1ncsc1-c1ccc([C@H](C)NC(=O)[C@@H]2C[C@@H](O)CN2C(=O)[C@@H](c2cc(N3CCN(C(=O)N4CC(Oc5cc(N6C7CCC6CN(c6cc(-c8ccccc8O)nnc6N)C7)ccn5)C4)CC3)no2)C(C)C)cc1 [Compound 129, (2S,4R)-1-[(2R)-2-[3-(4-{3-[(4-{3-[3-amino-6-(2-hydroxyphenyl)pyridazin-4-yl]-3,8-diazabicyclo[3.2.1]octan-8-yl}pyridin-2-yl)oxy]azetidine-1-carbonyl}piperazin-1-yl)-1,2-oxazol-5-yl]-3-methylbutanoyl]-4-hydroxy-N-[(1S)-1-[4-(4-methyl-1,3-thiazol-5-yl)phenyl]ethyl]pyrrolidine-2-carboxamide]	2.5 to 10 nM	> 75%
Cc1ncsc1-c1ccc([C@H](C)NC(=O)[C@@H]2C[C@@H](O)CN2C(=O)[C@@H](c2cc(N3CCC(CN4CCC5(CC4)CC(Oc4cc(N6C7CCC6CN(c6cc(-c8ccccc8O)nnc6N)C7)ccn4)C5)CC3)no2)C(C)C)cc1 [Compound 29, (2S,4R)-1-[(2R)-2-{3-[4-({2-[(4-{3-[3-amino-6-(2-hydroxyphenyl)pyridazin-4-yl]-3,8-diazabicyclo[3.2.1]octan-8-yl}pyridin-2-yl)oxy]-7-azaspiro[3.5]nonan-7-yl}methyl)piperidin-1-yl]-1,2-oxazol-5-yl}-3-methylbutanoyl]-4-hydroxy-N-[(1S)-1-[4-(4-methyl-1,3-thiazol-5-yl)phenyl]ethyl]pyrrolidine-2-carboxamide]	< 2.5 nM	> 75%
Cc1ncsc1-c1ccc([C@H](C)NC(=O)[C@@H]2C[C@@H](O)CN2C(=O)[C@@H](c2cc(N3CCC(CN4CCC(O[C@H]5C[C@H](N6CCC(Cc7cn(-c8cc(-c9ccccc9O)nnc8N)cn7)CC6)C5)CC4)CC3)no2)C(C)C)cc1 [Compound 130, (2S,4R)-4-hydroxy-N-[(1S)-1-[4-(4-methyl-1,3-thiazol-5-yl)phenyl]ethyl]-1-[(2R)-3-methyl-2-{3-[4-({4-[(1r,3r)-3-[4-({1-[3-amino-6-(2-hydroxyphenyl)pyridazin-4-yl]-1H-imidazol-4-yl}methyl)piperidin-1-yl]cyclobutoxy]piperidin-1-yl}methyl)piperidin-1-yl]-1,2-oxazol-5-yl}butanoyl]pyrrolidine-2-carboxamide]	10 to 30 nM	> 75%
Cc1ncsc1-c1ccc([C@H](C)NC(=O)[C@@H]2C[C@@H](O)CN2C(=O)[C@@H](c2cc(N3CCC(CN4CCC5(CC4)CC(N4CCO[C@H]([C@H](C)n6cc(C#Cc7cc(-c8ccccc8O)nnc7N)cn6)C4)C5)CC3)no2)C(C)C)cc1 [Compound 96, (2S,4R)-1-[(2R)-2-{3-[4-({2-[(2S)-2-[(1S)-1-(4-{2-[3-amino-6-(2-hydroxyphenyl)pyridazin-4-yl]ethynyl}-1H-pyrazol-1-yl)ethyl]morpholin-4-yl]-7-azaspiro[3.5]nonan-7-yl}methyl)piperidin-1-yl]-1,2-oxazol-5-yl}-3-methylbutanoyl]-4-hydroxy-N-[(1S)-1-[4-(4-methyl-1,3-thiazol-5-yl)phenyl]ethyl]pyrrolidine-2-carboxamide]	< 2.5 nM	> 75%
CC(C)[C@@H](C(=O)N1C[C@H](O)C[C@H]1C(=O)N[C@@H](C)c1ccc(-c2ccnn2C)cc1)c1cc(N2CCC(CN3CCC(Oc4cc(/C=C(\F)c5cc(-c6ccccc6O)nnc5N)ccn4)CC3)CC2)no1 [Compound 52, (2S,4R)-1-[(2R)-2-{3-[4-({4-[(4-{2-[3-amino-6-(2-hydroxyphenyl)pyridazin-4-yl]-2-fluoroethenyl}pyridin-2-yl)oxy]piperidin-1-yl}methyl)piperidin-1-yl]-1,2-oxazol-5-yl}-3-methylbutanoyl]-4-hydroxy-N-[(1S)-1-[4-(1-methyl-1H-pyrazol-5-yl)phenyl]ethyl]pyrrolidine-2-carboxamide]	< 2.5 nM	> 75%
